Reference: patent publication US20080161366A1, “AMINOALKYL SUBSTITUTED ARYL SULFAMIDE DERIVATIVES AND METHODS OF THEIR USE” (Wyeth, priority 2006, published 2008)
Counter-ions that a name gives are not always drawn.

Molecular target: human norepinephrine transporter (hNET) (Homo sapiens, UniProt P23975)
Experiment: hNET uptake, Protocol B: cell based norepinephrine reuptake assay using recombinant hNET (MDCK-Net6 cells)
Conditions: MDCK-Net6, read-out: NE uptake (Protocol B) % inhibition @ 6 uM

Chain of human norepinephrine transporter (hNET) (P23975 whole entry): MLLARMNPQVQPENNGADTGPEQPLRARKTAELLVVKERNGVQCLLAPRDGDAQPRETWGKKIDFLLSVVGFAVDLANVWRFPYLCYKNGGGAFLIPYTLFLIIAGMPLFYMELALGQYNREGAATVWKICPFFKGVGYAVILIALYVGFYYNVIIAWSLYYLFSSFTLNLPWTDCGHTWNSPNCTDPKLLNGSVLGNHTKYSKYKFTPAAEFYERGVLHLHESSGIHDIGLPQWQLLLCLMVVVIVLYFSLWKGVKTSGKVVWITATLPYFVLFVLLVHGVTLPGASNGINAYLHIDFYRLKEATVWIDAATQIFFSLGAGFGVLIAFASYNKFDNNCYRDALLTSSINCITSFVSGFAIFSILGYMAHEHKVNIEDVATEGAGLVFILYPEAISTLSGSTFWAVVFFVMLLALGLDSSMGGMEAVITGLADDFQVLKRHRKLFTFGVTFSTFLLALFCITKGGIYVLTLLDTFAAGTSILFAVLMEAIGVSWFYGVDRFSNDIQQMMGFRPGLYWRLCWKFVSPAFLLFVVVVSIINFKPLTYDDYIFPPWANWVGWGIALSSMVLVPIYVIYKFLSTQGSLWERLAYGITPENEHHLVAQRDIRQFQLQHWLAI

inhibition at 6 µM [%]	SMILES
49	CN(C)CCCCCN1c2ccccc2N(c2ccc(F)cc2Cl)S1(=O)=O [Example 90, 5-[3-(2-chloro-4-fluorophenyl)-2,2-dioxido-2,1,3-benzothiadiazol-1(3H)-yl]-N,N-dimethylpentan-1-amine hydrochloride]
0	O=S1(=O)N(CCCNCC(F)(F)F)c2ccccc2N1c1ccc(F)c(F)c1 [Example 111, 3-[3-(3,4-difluorophenyl)-2,2-dioxido-2,1,3-benzothiadiazol-1(3H)-yl]-N-(2,2,2-trifluoroethyl)propan-1-amine]

Same assay, conditions: NE uptake (Protocol B) IC50 (nM), MDCK-Net6 cells, 3H-NE 16 nM

IC50 [nM]	SMILES
46	CNCCCCN1c2ccccc2N(c2ccc(F)cc2)S1(=O)=O [Example 82, 4-[3-(4-Fluorophenyl)-2,2-dioxido-2,1,3-benzothiadiazol-1(3H)-yl]-N-methylbutan-1-amine hydrochloride]
12.6	CNCCCN1c2ccccc2N(c2ccccc2OC)S1(=O)=O [Example 9, 3-[3-(2-methoxyphenyl)-2,2-dioxido-2,1,3-benzothiadiazol-1(3H)-yl]-N-methylpropan-1-amine]
96.2	CNCCCN1c2ccccc2N(c2cccc(C)c2)S1(=O)=O [Example 15, N-methyl-3-[3-(3-methylphenyl)-2,2-dioxido-2,1,3-benzothiadiazol-1(3H)-yl]propan-1-amine]
1200	CN(C)CCCCCCN1c2ccccc2N(c2ccccc2F)S1(=O)=O [Example 103, 6-[3-(2-fluorophenyl)-2,2-dioxido-2,1,3-benzothiadiazol-1(3H)-yl]-N,N-dimethylhexan-1-amine]
4.84	CNCCCN1c2ccccc2N(c2cccc(F)c2F)S1(=O)=O [Example 46, 3-[3-(2,3-difluorophenyl)-2,2-dioxido-2,1,3-benzothiadiazol-1(3H)-yl]-N-methylpropan-1-amine hydrochloride]
448	CN(C)CCCN1c2c(F)cccc2N(c2ccc(F)cc2F)S1(=O)=O [Example 80, 3-[3-(2,4-Difluorophenyl)-7-fluoro-2,2-dioxido-2,1,3-benzothiadiazol-1(3H)-yl]-N,N-dimethylpropan-1-amine hydrochloride]
2.41	CNCCCN1c2cccc(F)c2N(c2ccccc2)S1(=O)=O [Example 41, 3-(4-fluoro-2,2-dioxido-3-phenyl-2,1,3-benzothiadiazol-1(3H)-yl)-N-methylpropan-1-amine]
15	CNCCCN1c2ccccc2N(c2c(F)cc(F)cc2F)S1(=O)=O [Example 77, 3-[2,2-Dioxido-3-(2,4,6-trifluorophenyl)-2,1,3-benzothiadiazol-1(3H)-yl]-N-methylpropan-1-amine hydrochloride]
148	CC(C)NCCCN1c2ccccc2N(c2c(F)cccc2F)S1(=O)=O [Example 127, 3-[3-(2,6-difluorophenyl)-2,2-dioxido-2,1,3-benzothiadiazol-1(3H)-yl]-N-isopropylpropan-1-amine hydrochloride]
20	CNCCCN1c2ccccc2N(c2ccc(F)c(F)c2)S1(=O)=O [Example 109, 3-[3-(3,4-difluorophenyl)-2,2-dioxido-2,1,3-benzothiadiazol-1(3H)-yl]-N-methylpropan-1-amine]
2.7	NCCCN1c2cccc(F)c2N(c2ccccc2F)S1(=O)=O [Example 74, 3-[4-fluoro-3-(2-fluorophenyl)-2,2-dioxido-2,1,3-benzothiadiazol-1(3H)-yl]propan-1-amine hydrochloride]
30	CNCCCN1c2ccccc2N(c2ccc(Cl)cc2F)S1(=O)=O [Example 95, 3-[3-(4-chloro-2-fluorophenyl)-2,2-dioxido-2,1,3-benzothiadiazol-1(3H)-yl]-N-methylpropan-1-amine]
67	O=S1(=O)N(CCNC2CCNCC2)c2ccccc2N1c1ccccc1 [Example 134, N-[2-(2,2-dioxido-3-phenyl-2,1,3-benzothiadiazol-1(3H)-yl)ethyl]piperidin-4-amine dihydrochloride]
298	CN(C)CCCCCN1c2ccccc2N(c2ccccc2F)S1(=O)=O [Example 67, 5-[3-(2-fluorophenyl)-2,2-dioxido-2,1,3-benzothiadiazol-1(3H)-yl]-N,N-dimethylpentan-1-amine]
2.81	CNCCCN1c2cccc(F)c2N(c2ccccc2F)S1(=O)=O [Example 73, 3-[4-fluoro-3-(2-fluorophenyl)-2,2-dioxido-2,1,3-benzothiadiazol-1(3H)-yl]-N-methylpropan-1-amine hydrochloride]
113	NCCCN1c2ccccc2N(c2ccc(F)cc2Cl)S1(=O)=O [Example 61, 3-[3-(2-Chloro-4-fluorophenyl)-2,2-dioxido-2,1,3-benzothiadiazol-1(3H)-yl]propan-1-amine hydrochloride]
295	CNCCCN1c2ccccc2N(c2ccc(F)cc2OC)S1(=O)=O [Example 64, 3-[3-(4-fluoro-2-methoxyphenyl)-2,2-dioxido-2,1,3-benzothiadiazol-1(3H)-yl]-N-methylpropan-1-amine]
45	CNCCCN1c2c(F)cccc2N(c2ccc(F)cc2F)S1(=O)=O [Example 78, 3-[3-(2,4-Difluorophenyl)-7-fluoro-2,2-dioxido-2,1,3-benzothiadiazol-1(3H)-yl]-N-methylpropan-1-amine hydrochloride]
26	CNCCCCN1c2ccccc2N(c2ccc(C)cc2F)S1(=O)=O [Example 104, 4-[3-(2-fluoro-4-methylphenyl)-2,2-dioxido-2,1,3-benzothiadiazol-1(3H)-yl]-N-methylbutan-1-amine]

IC50 [nM]	SMILES
3	CNCCCCN1c2ccccc2N(c2ccc(O)cc2F)S1(=O)=O [Example 93, 3-fluoro-4-{3-[4-(methylamino)butyl]-2,2-dioxido-2,1,3-benzothiadiazol-1(3H)-yl}phenol hydrochloride]
324	Cc1cc(F)ccc1N1c2ccccc2N(CCCN)S1(=O)=O [Example 63, 3-[3-(4-fluoro-2-methylphenyl)-2,2-dioxido-2,1,3-benzothiadiazol-1(3H)-yl]propan-1-amine]
365	O=S1(=O)N(CCCNC2CCNCC2)c2ccccc2N1c1ccccc1F [Example 131, N-{3-[3-(2-fluorophenyl)-2,2-dioxido-2,1,3-benzothiadiazol-1(3H)-yl]propyl}piperidin-4-amine dihydrochloride]
2360	CNCCCN1c2cc(Br)ccc2N(c2ccccc2)S1(=O)=O [Example 37, 3-(6-bromo-2,2-dioxido-3-phenyl-2,1,3-benzothiadiazol-1(3H)-yl)-N-methylpropan-1-amine]
57.1	CNCCCN1c2ccccc2N(c2ccc(C)cn2)S1(=O)=O [Example 26, N-methyl-3-[3-(5-methylpyridin-2-yl)-2,2-dioxido-2,1,3-benzothiadiazol-1(3H)-yl]propan-1-amine hydrochloride]
4	CNCCCN1c2ccccc2N(c2ccc(C)cc2F)S1(=O)=O [Example 108, 3-[3-(2-fluoro-4-methylphenyl)-2,2-dioxido-2,1,3-benzothiadiazol-1(3H)-yl]-N-methylpropan-1-amine]
5.24	CNCCCN1c2c(F)cccc2N(c2ccccc2F)S1(=O)=O [Example 76, 3-[7-fluoro-3-(2-fluorophenyl)-2,2-dioxido-2,1,3-benzothiadiazol-1(3H)-yl]-N-methylpropan-1-amine]
21	O=S1(=O)N(CCCNC2CC2)c2ccccc2N1c1c(F)cccc1F [Example 84, N-{3-[3-(2,6-Difluorophenyl)-2,2-dioxido-2,1,3-benzothiadiazol-1(3H)-yl]propyl}cyclopropanamine hydrochloride]
48	CCNCCCCN1c2ccccc2N(c2c(F)cccc2F)S1(=O)=O [Example 122, 4-[3-(2,6-difluorophenyl)-2,2-dioxido-2,1,3-benzothiadiazol-1(3H)-yl]-N-ethylbutan-1-amine hydrochloride]
2620	CNCCCN1c2ccccc2N(c2ccc3ccccc3c2)S1(=O)=O [Example 14, N-methyl-3-[3-(2-naphthyl)-2,2-dioxido-2,1,3-benzothiadiazol-1(3H)-yl]propan-1-amine]
26	NCCCCCCN1c2ccccc2N(c2ccccc2F)S1(=O)=O [Example 102, 6-[3-(2-fluorophenyl)-2,2-dioxido-2,1,3-benzothiadiazol-1(3H)-yl]hexan-1-amine]
440	O=S1(=O)N(CCCCNC2CCCCC2)c2ccccc2N1c1c(F)cccc1F [Example 125, N-{4-[3-(2,6-difluorophenyl)-2,2-dioxido-2,1,3-benzothiadiazol-1(3-yl]butyl}cyclohexanamine hydrochloride]
190	CNCCCN1c2ccccc2N(c2ccccc2OC(F)(F)F)S1(=O)=O [Example 50, 3-{2,2-dioxido-3-[2-(trifluoromethoxy)phenyl]-2,1,3-benzothiadiazol-1(3H)-yl}-N-methylpropan-1-amine hydrochloride]
582	CCNCCCCN1c2ccccc2N(c2ccc(C)cc2F)S1(=O)=O [Example 107, N-ethyl-4-[3-(2-fluoro-4-methylphenyl)-2,2-dioxido-2,1,3-benzothiadiazol-1(3H)-yl]butan-1-amine]
113	O=S1(=O)N(CCCNC2CC2)c2ccccc2N1c1ccccc1 [Example 96, N-[3-(2,2-dioxido-3-phenyl-2,1,3-benzothiadiazol-1(3H)-yl)propyl]cyclopropanamine]
370	CNCCCN1c2ccccc2N(c2ccc(Cl)cc2C)S1(=O)=O [Example 100, 3-[3-(4-chloro-2-methylphenyl)-2,2-dioxido-2,1,3-benzothiadiazol-1(3H)-yl]-N-methylpropan-1-amine]
534	CNCCCN1c2ccccc2N(c2cccc3ccccc23)S1(=O)=O [Example 13, N-methyl-3-[3-(1-naphthyl)-2,2-dioxido-2,1,3-benzothiadiazol-1(3H)-yl]propan-1-amine]
146	CNCCCN1c2cnccc2N(c2ccccc2)S1(=O)=O [Example 25, 3-(2,2-dioxido-1-phenyl[1,2,5]thiadiazolo[3,4-c]pyridin-3(1H)-yl)-N-methylpropan-1-amine]
